The nature of data set [1]: Metabolic stability in human liver microsomes. Type of data set: in vitro ADME. The following applies: for half-life: human liver microsomes 0.75 mg/mL, NADPH, 0-60 min. As for the experimental part:
A 500 μM solution of the compound in acetonitrile was prepared and diluted to obtain a 1.5 μM drug working solution with a 0.1 M potassium phosphate solution. The drug working solution was co-incubated with a human liver microsome working solution at a final concentration of 0.75 mg/mL and an NADPH solution (final concentration: 550 μM), and the incubation was terminated by adding an acetonitrile solution at 0 min, 15 min, 30 min, 45 min, and 60 min. The residual amount of the compound that remained in the system at each time point was detected by using LC/MS. The absolute value k of the slope was determined by plotting the natural logarithm of the percentage of the residual amount of the compound with the time, and the calculation was performed according to the formula: T1/2 (half-life)=ln2/k=0.693/k.
(Microsomes from liver hold many membrane-bound enzymes, among them those of drug oxidation.)

For the next data set, the target named is T1, PPARγ (Homo sapiens, UniProt P37231).
T1 construct: hPPARγ (281aa-554aa); expressed in transfected cells; host or cells: Cos-7
T1 sequence (P37231 232-505 limits assumed): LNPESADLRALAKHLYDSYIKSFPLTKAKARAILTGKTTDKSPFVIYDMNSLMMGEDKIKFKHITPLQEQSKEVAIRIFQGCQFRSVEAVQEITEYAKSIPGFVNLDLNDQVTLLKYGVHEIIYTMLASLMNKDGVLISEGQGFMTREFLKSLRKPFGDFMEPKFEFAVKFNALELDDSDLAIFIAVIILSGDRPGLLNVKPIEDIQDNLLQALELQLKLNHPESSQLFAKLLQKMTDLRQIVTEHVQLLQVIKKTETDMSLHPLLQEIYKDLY
As to the kind of experiment: Gal4-PPARγ(LBD) reporter gene agonistic activity assay in Cos-7 cells. Type of data set: cell-based. As for the experimental part:
(§1) Cos-7 cells (African green monkey kidney fibroblasts, commonly used tool cells) were cultured in a 10 cm cell culture dish in a DMEM complete medium containing 10% fetal bovine serum. When the cells grew to a density of about 70%, the medium was replaced with a fresh medium for later transfection. […] The plasmid working solution was then added to the cell culture dish for cell transfection. […] Test compounds were prepared into appropriate test concentrations with a complete medium and then added to the 96-well plate. […] 10 μL of lysate was pipetted into a white opaque 384-well plate, and then 10 μL of reporter gene assay buffer (purchased from Shanghai Beyotime Biological Tech. Co., Ltd.) was added. The bioluminescence was detected by using a multimode microplate reader, and the corresponding half maximal effective concentration (EC50) value was calculated according to the detection value.
(In general: A reporter such as luciferase makes a cellular process visible.)

A further data set addresses T2, PPARδ (Homo sapiens, UniProt Q03181).
T2 construct: expressed in transfected cells; host or cells: Cos-7
T2 sequence (Q03181 139-441 limits assumed): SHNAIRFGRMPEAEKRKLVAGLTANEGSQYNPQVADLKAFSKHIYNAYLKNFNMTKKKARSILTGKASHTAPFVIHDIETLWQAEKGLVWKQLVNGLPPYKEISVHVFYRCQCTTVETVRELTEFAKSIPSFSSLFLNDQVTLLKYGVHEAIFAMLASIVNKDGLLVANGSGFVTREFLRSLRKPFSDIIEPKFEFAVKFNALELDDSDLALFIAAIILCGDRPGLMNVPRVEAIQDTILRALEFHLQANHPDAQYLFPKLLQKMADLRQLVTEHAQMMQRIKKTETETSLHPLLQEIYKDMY
As to the kind of experiment: Gal4-PPARδ(LBD) reporter gene agonistic activity assay in Cos-7 cells. Type of data set: cell-based. To be noted: for agonistic activity for PPARδ (EC50 level, in words): Cos-7 reporter assay. The protocol:
as §1

The target of another data set is T3, PPARα (Homo sapiens, UniProt Q07869).
T3 construct: hPPARα (279aa-580aa); expressed in transfected cells; host or cells: Cos-7
T3 sequence (Q07869 167-468 limits assumed): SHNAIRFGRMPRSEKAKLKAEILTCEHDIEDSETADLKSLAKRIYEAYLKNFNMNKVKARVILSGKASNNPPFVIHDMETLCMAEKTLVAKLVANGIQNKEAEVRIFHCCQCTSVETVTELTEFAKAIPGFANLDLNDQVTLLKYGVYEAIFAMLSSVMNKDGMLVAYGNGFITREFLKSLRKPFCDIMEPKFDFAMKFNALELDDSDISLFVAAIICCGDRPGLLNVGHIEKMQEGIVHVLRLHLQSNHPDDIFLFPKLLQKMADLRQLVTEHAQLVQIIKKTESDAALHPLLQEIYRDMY
As to the kind of experiment: Gal4-PPARα(LBD) reporter gene agonistic activity assay in Cos-7 cells. To be noted: for pEC50: Cos-7 cells, Gal4-PPARα(LBD) reporter, 16 h, 100% = GW7647 10 nM; for agonistic activity for PPARα (EC50 level, in words): Cos-7 reporter assay. In kind it is cell-based. The protocol:
as §1

[2] abbreviates: Cos-7 cells, Gal4-PPARγ(LBD) reporter, 16 h, 100% = Rosiglitazone 1 μM.
Setting [3] is: Cos-7 cells, Gal4-PPARδ(LBD) reporter, 16 h, 100% = GW501516 10 nM.

pEC50: −log10 of the molar value. Read-outs that look alike come from different tables or passages of the source.

Usually half-life stands for the time in which the quantity being followed falls by half. In the case of `Cc1cc(SCn2ncn(-c3ccc(C(F)(F)F)cc3)c2=O)ccc1OCC(=O)O` [Compound 16, 2-(2-Methyl-4-(((5-oxo-4-(4-(trifluoromethyl)phenyl)-4,5-dihydro-1H-1,2,4-triazol-1-yl)methyl)thio)phenoxy)acetic acid], in data set [1], the “metabolic stability in human liver microsomes (in words)” value (shortened to “metabolic stability”) is on record as “very good metabolic stability in human liver microsomes” and the half-life is more than 2 h.

A word on the pEC50: it is the negative decadic logarithm of the EC50, by convention in mol/L. A lower pEC50 goes with a large EC50. On to `Cc1cc(Cn2ncn(-c3ccc(Br)cc3)c2=O)cc(C)c1OC(C)(C)C(=O)O` [Compound 55, 2-(4-((4-(4-Bromophenyl)-5-oxo-4,5-dihydro-1H-1,2,4-triazol-1-yl)methyl)-2,6-dimethylphenoxy)-2-methylpropionic acid], for which the pEC50 at PPARγ (setting [2]) was 5.75. Besides, at PPARδ, the pEC50 was 7.66 and the “agonistic activity for PPARδ (EC50 level, in words)” value (“agonistic activity for PPARδ” for short) is listed as “at nanomolar levels”. In data set [1], the “metabolic stability” value was “very good metabolic stability in human liver microsomes” and the half-life is more than 2 h.

In the case of `Cc1ccc(-n2cnn(Cc3cc(C)c(OC(C)(C)C(=O)O)c(C)c3)c2=O)cc1` [Compound 65, 2-(2,6-Dimethyl-4-((5-oxo-4-(p-tolyl)-4,5-dihydro-1H-1,2,4-triazol-1-yl)methyl)phenoxy)-2-methylpropionic acid], the pEC50 at PPARγ (setting [2]) was 6.02; on PPARα, 6.74; at PPARδ (setting [3]) it was 6.61.

On to `Cc1cc(Cn2ncn(-c3ccc(Cl)cc3)c2=O)cc(C)c1OC(C)(C)C(=O)O` [Compound 67, 2-(4-((4-(4-Chlorophenyl)-5-oxo-4,5-dihydro-1H-1,2,4-triazol-1-yl)methyl)-2,6-dimethylphenoxy)-2-methylpropionic acid], for which the pEC50 at PPARγ (setting [2]) was 5.74; on PPARα it was 6.78; on PPARδ (setting [3]) it was 7.33.

For the compound `Cc1cc(Cn2ncn(-c3ccc(OC(F)(F)F)cc3)c2=O)ccc1OC(C)(C)C(=O)O` [Compound 79, 2-Methyl-2-(2-methyl-4-((5-oxo-4-(4-(trifluoromethoxy)phenyl)-4,5-dihydro-1H-1,2,4-triazol-1-yl)methyl)phenoxy)propionic acid], the pEC50 at PPARγ (setting [2]) was 5.72; at PPARα, 6.47; at PPARδ (setting [3]) it was 6.21.

`CC(C)(Oc1ccc(Cn2ncn(-c3ccc(OC(F)(F)F)cc3)c2=O)cc1OC(F)(F)F)C(=O)O` [Compound 103, 2-Methyl-2-(4-((5-oxo-4-(4-(trifluoromethoxy)phenyl)-4,5-dihydro-1H-1,2,4-triazol-1-yl)methyl)-2-(trifluoromethoxy)phenoxy)propionic acid]: the pEC50 on PPARγ (setting [2]) is 5.33; on PPARα, 6.67; at PPARδ (setting [3]) it was 6.56.

In the case of `CC(C)(Oc1ccc(Cn2ncn(-c3ccc(OC(F)(F)F)cc3)c2=O)cc1Cl)C(=O)O` [Compound 105], the results for the pEC50 at PPARγ (setting [2]), on PPARα and on PPARδ (setting [3]) were 5.31, 6.76 and 6.49, respectively.

Regarding `COc1ccc(-n2cnn(Cc3cc(C)c(OC(C)(C)C(=O)O)c(C)c3)c2=O)cc1` [Compound 107, 2-(4-((4-(4-Methoxyphenyl)-5-oxo-4,5-dihydro-1H-1,2,4-triazol-1-yl)methyl)-2,6-dimethylphenoxy)-2-methylpropionic acid], the values for the negative logarithm of the EC50 (pEC50) on PPARγ (setting [2]), at PPARα and at PPARδ (setting [3]) were 5.69, 6.84 and 6.56, respectively.

Consider `Cc1cc(Cn2ncn(-c3ccc(C(C)C)cc3)c2=O)cc(C)c1OC(C)(C)C(=O)O` [Compound 115, 2-(4-((4-(4-Isopropylphenyl)-5-oxo-4,5-dihydro-1H-1,2,4-triazol-1-yl)methyl)-2,6-dimethylphenoxy)-2-methylpropionic acid], for which the pEC50 was 5.75 at PPARγ (setting [2]) and 8.10 on PPARα.

For `CC(C)(Oc1ccc(Cn2ncn(-c3ccc(C(F)(F)F)cc3)c2=O)cc1Cl)C(=O)O` [Compound 125, 2-(2-Chloro-4-((5-oxo-4-(4-(trifluoromethyl)phenyl)-4,5-dihydro-1H-1,2,4-triazol-1-yl)methyl)phenoxy)-2-methylpropionic acid], the figures for the negative logarithm of the EC50 (pEC50) at PPARγ (setting [2]), on PPARα and on PPARδ (setting [3]) were 5.56, 6.79 and 6.64, respectively.

Take `CC(C)(Oc1c(Cl)cc(Cn2ncn(-c3ccc(C(F)(F)F)cc3)c2=O)cc1Cl)C(=O)O` [Compound 129, 2-(2,6-Dichloro-4-((5-oxo-4-(4-(trifluoromethyl)phenyl)-4,5-dihydro-1H-1,2,4-triazol-1-yl)methyl)phenoxy)-2-methylpropionic acid]: on PPARγ (setting [2]), the pEC50 is 5.31. Also, on PPARα, the pEC50 is 7.64 and the “agonistic activity for PPARα (EC50 level, in words)” value was “at nanomolar levels”. For the same compound, in data set [1], the “metabolic stability” value is listed as “very good metabolic stability in human liver microsomes” and the half-life is more than 2 h.

For the compound `CC(C)(Oc1ccc(Cn2ncn(-c3ccc(OC(F)(F)F)cc3)c2=O)cc1C(F)(F)F)C(=O)O` [Compound 157, 2-Methyl-2-(4-((5-oxo-4-(4-(trifluoromethoxy)phenyl)-4,5-dihydro-1H-1,2,4-triazol-1-yl)methyl)-2-(trifluoromethyl)phenoxy)propionic acid], the figures for the pEC50 at PPARγ (setting [2]) and at PPARα were 5.78 and 6.56, respectively.

With `Cc1cc(Cn2ncn(-c3ccc(C(F)(F)F)cc3)c2=O)cc(C(F)(F)F)c1OC(C)(C)C(=O)O` [Compound 165, 2-Methyl-2-(2-methyl-4-((5-oxo-4-(4-(trifluoromethyl)phenyl)-4,5-dihydro-1H-1,2,4-triazol-1-yl)methyl)-6-(trifluoromethyl)phenoxy)propionic acid], the pEC50 at PPARγ (setting [2]) is 6.09. Further, on PPARδ, the pEC50 was 9.00 and the “agonistic activity for PPARδ” value is “at nanomolar levels”. For the same compound, in data set [1], the “metabolic stability” value is on record as “very good metabolic stability in human liver microsomes” and the half-life is more than 2 h.

In the case of `CCc1cc(Cn2ncn(-c3ccc(OC(F)(F)F)cc3)c2=O)cc(CC)c1OC(C)(C)C(=O)O` [Compound 189, 2-(2,6-Diethyl-4-((5-oxo-4-(4-(trifluoromethoxy)phenyl)-4,5-dihydro-1H-1,2,4-triazol-1-yl)methyl)phenoxy)-2-methylpropionic acid], the negative-log EC50 (pEC50) on PPARγ was 5.66; on PPARα it was 7.23; on PPARδ (setting [3]), 7.38. Also, on PPARα, the “agonistic activity for PPARα (EC50 level, in words)” value is “at nanomolar levels”. Besides, the “agonistic activity for PPARδ” value at PPARδ is listed as “at nanomolar levels”.

`Cc1cc(SCn2ncn(-c3ccc(C(F)(F)F)cc3)c2=O)cc(C)c1OC(C)(C)C(=O)O` [Compound 198, 2-(2,6-Dimethyl-4-(((5-oxo-4-(4-(trifluoromethyl)phenyl)-4,5-dihydro-1H-1,2,4-triazol-1-yl)methyl)thio)phenoxy)-2-methylpropionic acid]: the figures for the negative logarithm of the EC50 (pEC50) at PPARγ (setting [2]) and on PPARα were 5.55 and 6.54, respectively.

Values taken from US20250188044A1 (HARBIN MEDISAN PHARMACEUTICAL CO., LTD., priority 2021, published 2025).
